Reference: patent publication US8008298B2, “Pyrrolopyrazine kinase inhibitors” (Roche Palo Alto, priority 2008, dated 2011)
Counter-ions that a name gives are not always drawn.

| melting point | Compound |
| --- | --- |
| 223 to 225 °C | CC(C)(C)C(=O)c1c[nH]c2ncc(-c3cccc(N4CCC(S(C)(=O)=O)C4)c3)nc12 (stereo not shown) [Example 109, 1-{2-[3-(3-Methanesulfonyl-pyrrolidin-1-yl)-phenyl]-5H-pyrrolo[2,3-b]pyrazin-7-yl}-2,2-dimethyl-propan-1-one] |
| 188 to 190 °C | CC(C)(C)C(=O)c1c[nH]c2ncc(-c3cccc(C4=CCCCC4)c3)nc12 [Example I-352, 1-[2-(3-Cyclohex-1-enyl-phenyl)-5H-pyrrolo[2,3-b]pyrazin-7-yl]-2,2-dimethyl-propan-1-one] |
| 211 to 212 °C | COc1ccc(-c2cnc3[nH]cc(C(=O)NC4CCN(C(C)=O)C4)c3n2)cc1OC (stereo not shown) [Example 26, 2-(3,4-Dimethoxy-phenyl)-5H-pyrrolo[2,3-b]pyrazine-7-carboxylic acid (1-acetyl-pyrrolidin-3-yl)-amide] |
| 176 to 178 °C | CC(C)(C)C(=O)c1c[nH]c2ncc(-c3cccc(CN)c3)nc12 [Example 149, 1-[2-(3-Aminomethyl-phenyl)-5H-pyrrolo[2,3-b]pyrazin-7-yl]-2,2-dimethyl-propan-1-one] |
| 215 to 216 °C | COc1ccc(COc2cccc(-c3cnc4[nH]cc(C(=O)NC(C)C)c4n3)c2)cc1 [Example I-229, 2-[3-(4-Methoxy-benzyloxy)-phenyl]-5H-pyrrolo[2,3-b]pyrazine-7-carboxylic acid isopropylamide] |
| 150 to 152 °C | C[S+]([O-])c1ccc(-c2cnc3[nH]cc(C(=O)C(C)(C)C)c3n2)cc1N1CCCC1 (stereo not shown) [Example 107, 1-[2-(4-Methanesulfinyl-3-pyrrolidin-1-yl-phenyl)-5H-pyrrolo[2,3-b]pyrazin-7-yl]-2,2-dimethyl-propan-1-one] |
| > 300 °C | CC(C)(C)C(=O)c1c[nH]c2ncc(-c3cccc(-c4cn[nH]c4)c3)nc12 [Example I-369, 2,2-Dimethyl-1-{2-[3-(1H-pyrazol-4-yl)-phenyl]-5H-pyrrolo[2,3-b]pyrazin-7-yl}-propan-1-one] |
| 202 to 203 °C | CC(C)(C)C(=O)c1c[nH]c2ncc(-c3cccc(CCO)c3)nc12 [Example 148, 1-{2-[3-(2-Hydroxy-ethyl)-phenyl]-5H-pyrrolo[2,3-b]pyrazin-7-yl}-2,2-dimethyl-propan-1-one] |
| 199 to 200 °C | COc1cc(-c2cnc3[nH]cc(C(=O)NCC(C)OC)c3n2)cc(OC)c1OC (stereo not shown) (as salt: hydrochloride) [Example 24, 2-(3,4,5-Trimethoxy-phenyl)-5H-pyrrolo[2,3-b]pyrazine-7-carboxylic acid (2-methoxy-propyl)-amide] |
| 216 to 218 °C | CC1(N)CCN(c2cccc(-c3cnc4[nH]cc(C(=O)C(C)(C)C)c4n3)c2)C1 (stereo not shown) [Example 212, 1-{2-[3-(3-Amino-3-methyl-pyrrolidin-1-yl)-phenyl]-5H-pyrrolo[2,3-b]pyrazin-7-yl}-2,2-dimethyl-propan-1-one] |
| 149 to 150 °C | CC(C)Oc1cccc(-c2cnc3[nH]cc(C(=O)C(C)(C)C)c3n2)c1 [Example 138, 1-[2-(3-Isopropoxy-phenyl)-5H-pyrrolo[2,3-b]pyrazin-7-yl]-2,2-dimethyl-propan-1-one] |
| 206.9 to 207.7 °C | COc1cc(OC)cc(-c2cnc3[nH]cc(C(=O)C(C)(C)C)c3n2)c1 [Example 146, 1-[2-(3,5-Dimethoxy-phenyl)-5H-pyrrolo[2,3-b]pyrazin-7-yl]-2,2-dimethyl-propan-1-one] |
| 290 to 292.4 °C | COc1ccc(-c2cnc3[nH]cc(C(N)=O)c3n2)cc1OC [Example 18, 2-(3,4-Dimethoxy-phenyl)-5H-pyrrolo[2,3-b]pyrazine-7-carboxylic acid amide] |
| 242 to 244 °C | COc1cc(-c2cnc3[nH]cc(C(=O)C4(C)CCC(O)CC4)c3n2)cc(OC)c1OC (stereo not shown) [Example 191, (4-Hydroxy-1-methyl-cyclohexyl)-[2-(3,4,5-trimethoxy-phenyl)-5H-pyrrolo[2,3-b]pyrazin-7-yl]-methanone] |
| 260.9 to 264.4 °C | Cc1nnc(-c2cccc(-c3cnc4[nH]cc(C(=O)C(C)(C)C)c4n3)c2)o1 [Example I-325, 2,2-Dimethyl-1-{2-[3-(5-methyl-[1,3,4]oxadiazol-2-yl)-phenyl]-5H-pyrrolo[2,3-b]pyrazin-7-yl}-propan-1-one] |
| 277 to 278 °C | CC(C)(C)C(=O)c1c[nH]c2ncc(-c3ccc(S(N)(=O)=O)cc3)nc12 [Example 140, 4-[7-(2,2-Dimethyl-propionyl)-5H-pyrrolo[2,3-b]pyrazin-2-yl]-benzenesulfonamide] |
| 285 to 286 °C | CC(C)(C)C(=O)c1c[nH]c2ncc(-c3cccc(NS(=O)(=O)c4ccc(N)cc4)c3)nc12 [Example 235, 4-Amino-N-{3-[7-(2,2-dimethyl-propionyl)-5H-pyrrolo[2,3-b]pyrazin-2-yl]-phenyl}-benzenesulfonamide] |
| 230 to 231 °C | CC1(C(=O)c2c[nH]c3ncc(-c4cccc(N5CCN(S(C)(=O)=O)CC5)c4)nc23)CCCCC1 [Example 181, {2-[3-(4-Methanesulfonyl-piperazin-1-yl)-phenyl]-5H-pyrrolo[2,3-b]pyrazin-7-yl}-(1-methyl-cyclohexyl)-methanone] |
| 267 to 268 °C | CC(C)(C)C(=O)c1c[nH]c2ncc(-c3cccc(O)c3)nc12 [Example I-141, 1-[2-(3-Hydroxy-phenyl)-5H-pyrrolo[2,3-b]pyrazin-7-yl]-2,2-dimethyl-propan-1-one] |

| melting point | Compound |
| --- | --- |
| 186 to 187 °C | COc1ccc(F)cc1-c1cnc2[nH]cc(C(=O)CC(C)C)c2n1 [Example I-5, 1-[2-(5-Fluoro-2-methoxy-phenyl)-5H-pyrrolo[2,3-b]pyrazin-7-yl]-3-methyl-butan-1-one] |
| 232 to 233 °C | CCNC(=O)c1cccc(-c2cnc3[nH]cc(C(=O)C(C)(C)C)c3n2)c1 [Example I-365, 3-[7-(2,2-Dimethyl-propionyl)-5H-pyrrolo[2,3-b]pyrazin-2-yl]-N-ethyl-benzamide] |
| 245 to 247 °C | CNS(=O)(=O)c1cccc(-c2cnc3[nH]cc(C(=O)C(C)(C)C)c3n2)c1 [Example 141, 3-[7-(2,2-Dimethyl-propionyl)-5H-pyrrolo[2,3-b]pyrazin-2-yl]-N-methyl-benzenesulfonamide] |
| 208 to 209 °C | CC1(C(=O)c2c[nH]c3ncc(-c4cccc(N5CCOCC5)c4)nc23)CCCCC1 [Example 153, (1-Methyl-cyclohexyl)-[2-(3-morpholin-4-yl-phenyl)-5H-pyrrolo[2,3-b]pyrazin-7-yl]-methanone] |
| 228 to 230 °C | COc1cc(-c2cnc3[nH]cc(C(=O)N4CCC(C)(C)C4)c3n2)cc(OC)c1OC [Example I-395, (3,3-Dimethyl-pyrrolidin-1-yl)-[2-(3,4,5-trimethoxy-phenyl)-5H-pyrrolo[2,3-b]pyrazin-7-yl]-methanone] |
| 204 to 206 °C | CN(C)C1CCN(c2cccc(-c3cnc4[nH]cc(C(=O)C(C)(C)C)c4n3)c2)C1 (stereo not shown) [Example 202, 1-{2-[3-(3-Dimethylamino-pyrrolidin-1-yl)-phenyl]-5H-pyrrolo[2,3-b]pyrazin-7-yl}-2,2-dimethyl-propan-1-one] |
| 179 to 180 °C | CCCOc1cccc(-c2cnc3[nH]cc(C(=O)C(C)(C)C)c3n2)c1 [Example 139, 2,2-Dimethyl-1-[2-(3-propoxy-phenyl)-5H-pyrrolo[2,3-b]pyrazin-7-yl]-propan-1-one] |
| 275 to 277 °C | CC(C)(C)C(=O)c1c[nH]c2ncc(-c3ccc(-c4ccccc4)cc3)nc12 [Example I-355, 1-(2-Biphenyl-4-yl-5H-pyrrolo[2,3-b]pyrazin-7-yl)-2,2-dimethyl-propan-1-one] |
| 152.9 to 154.7 °C | CC(C)(C)C(=O)c1c[nH]c2ncc(-c3cccc(OCCN4CCOCC4)c3)nc12 [Example I-41, 2,2-Dimethyl-1-{2-[3-(2-morpholin-4-yl-ethoxy)-phenyl]-5H-pyrrolo[2,3-b]pyrazin-7-yl}-propan-1-one] |
| 211 to 213 °C | CCN(CC)c1ccc(-c2cnc3[nH]cc(C(=O)C4(C)CCCCC4)c3n2)cc1 [Example 173, [2-(4-Diethylamino-phenyl)-5H-pyrrolo[2,3-b]pyrazin-7-yl]-(1-methyl-cyclohexyl)-methanone] |
| 219.9 to 221.1 °C | CC(C)(C)C(=O)c1c[nH]c2ncc(-c3cccc(-c4ccccc4)c3)nc12 [Example I-335, 1-(2-Biphenyl-3-yl-5H-pyrrolo[2,3-b]pyrazin-7-yl)-2,2-dimethyl-propan-1-one] |
| 227 to 228 °C | COc1cc(-c2cnc3[nH]cc(C(=O)C(=O)N(C)C)c3n2)cc(OC)c1OC [Example 74, N,N-Dimethyl-2-oxo-2-[2-(3,4,5-trimethoxy-phenyl)-5H-pyrrolo[2,3-b]pyrazin-7-yl]-acetamide] |
| 191 to 192 °C | COCc1ccc(-c2cnc3[nH]cc(C(=O)C(C)(C)C)c3n2)cc1 [Example I-132, 1-[2-(4-Methoxymethyl-phenyl)-5H-pyrrolo[2,3-b]pyrazin-7-yl]-2,2-dimethyl-propan-1-one] |
| 274 to 276 °C | CC(=O)Nc1ccc(S(=O)(=O)Nc2cc(-c3cnc4[nH]cc(C(=O)C(C)(C)C)c4n3)ccc2C)cc1 [Example I-415, N-(4-{5-[7-(2,2-Dimethyl-propionyl)-5H-pyrrolo[2,3-b]pyrazin-2-yl]-2-methyl-phenylsulfamoyl}-phenyl)-acetamide] |
| 275 to 277 °C | CC(C)(C)C(=O)c1c[nH]c2ncc(-c3cccc(S(N)(=O)=O)c3)nc12 [Example 144, 3-[7-(2,2-Dimethyl-propionyl)-5H-pyrrolo[2,3-b]pyrazin-2-yl]-benzenesulfonamide] |
| 279 to 280 °C | O=C(c1c[nH]c2ncc(Br)nc12)C12CC3CC(CC(C3)C1)C2 [Example 161, Adamantan-1-yl-(2-bromo-5H-pyrrolo[2,3-b]pyrazin-7-yl)-methanone] |
| 272 to 274 °C | CN(C)c1ccc(-c2cnc3[nH]cc(C(=O)C4(C)CCCCC4)c3n2)cc1 [Example 158, [2-(4-Dimethylamino-phenyl)-5H-pyrrolo[2,3-b]pyrazin-7-yl]-(1-methyl-cyclohexyl)-methanone] |
| 197.4 to 198.8 °C | COc1cccc(-c2cnc3[nH]cc(C(=O)C(C)(C)C)c3n2)c1 [Example I-134, 1-[2-(3-Methoxy-phenyl)-5H-pyrrolo[2,3-b]pyrazin-7-yl]-2,2-dimethyl-propan-1-one] |
